# Test results published in paper PMC4784888, “Activity Based High-Throughput Screening for Novel O-GlcNAc Transferase Substrates Using a Dynamic Peptide Microarray” (PLoS ONE, 2016).
# Structures can show the parent of a compound that is named as a salt.
# Tested on: purified m-OGT
# Test: Km of UDP-GlcNAc in RBL-2 peptide O-GlcNAcylation on microarray
# Assay type: biochemical, human
# Details: fixed saturating RBL-2_410–422 peptide, purified m-OGT (0.2 μg/μL), UDP-GlcNAc 0–2 mM, Michaelis-Menten fit; read-out: Km of UDP-GlcNAc donor
# Method: One step OGT purification was performed using His60 Ni Gravity Flow Columns (Clontech) according to the manufacturer’s instructions. Briefly, the nickel column was equilibrated with a buffer containing 50 mM sodium phosphate, 300 sodium chloride, 20 mM imidazole, and pH 7.4, followed by incubation with cell lysate containing His tag OGT for 1h at 4°C. After washing several times using buffer containing 50 mM sodium phosphate, 300 sodium chloride, 40 mM imidazole, and pH 7.4, the recombinant OGT was eluted using elution buffer containing 50 mM sodium phosphate, 300 mM sodium chloride, 300 mM imidazole, and pH 7.4. […]
# Peptide O-GlcNAcylation was assessed using PamChip 4 microarray chips with a PamStation 12 instrument (Pamgene international, The Netherlands). […] O-GlcNAcylation of each peptide was detected by a fluorescent signal which was produced by an FITC conjugated antibody bound to the O-GlcNAc moiety on the peptide.
# Image analysis was performed using BioNavigator 6 software (Pamgene international, The Netherlands). Briefly, each image was quantified by automated array grid finding and subsequent quantification of signal and local background for each individual spot. In this work, the signal median-minus-background value was used as the quantitative parameter for the O-GlcNAcylation of the peptide. […]
compound,measurement,value
"CC(=O)N[C@H]1[C@@H](OP(=O)(O)OP(=O)(O)OC[C@H]2O[C@@H](n3ccc(=O)[nH]c3=O)[C@H](O)[C@@H]2O)O[C@H](CO)[C@@H](O)[C@@H]1O [UDP-GlcNAc, Uridine 5′-diphospho-N-acetylglucosamine sodium salt]",Km,24 µM
